Experimental data from article PMC3867360, “Membrane Interactions of S100A12 (Calgranulin C)” (PLoS ONE, 2013).

Target: T1, porcine S100A12 (Calgranulin C) (Sus scrofa, UniProt P80310)
T1 construct: pET28a-S100A12 in E. coli BL21(DE3); N-terminal or other His-tag cut with thrombin; non-covalent antiparallel homodimer; apo form in SPR
T1 sequence (P80310 1-92 limits assumed): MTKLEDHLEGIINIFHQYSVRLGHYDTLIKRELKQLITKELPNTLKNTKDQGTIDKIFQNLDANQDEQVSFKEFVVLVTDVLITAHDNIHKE
Assay: SPR, Biacore X, L1 sensorchip, immobilized LUVs
Type: binding
Description: SPR, Biacore X, L1 sensorchip, immobilized LUVs on porcine S100A12 (Calgranulin C)

Kd [µM]	SMILES
5.9	CCCCCCCCCCCCCCCC(=O)OC[C@H](COP(=O)([O-])OCC[N+](C)(C)C)OC(=O)CCCCCCCCCCCCCCC [DPPC, 1,2-dipalmitoyl-sn-glycero-3-phosphocholine]
0.63	CCCCCCCCCCCCCCCC(=O)OC[C@H](COP(=O)(O)OCC(O)CO)OC(=O)CCCCCCCCCCCCCCC (some centres unmarked) [DPPG, 1,2-dipalmitoyl-sn-glycero-3-phosphoglycerol]
